Measured values as given in US9657013B2, “Inhibitors of hepatitis B virus covalently closed circular DNA formation and their method of use” (priority 2012, dated 2017).

Legend:
HBV Dp-rcDNA and cccDNA = experiment: stability of HBV DP-rcDNA and cccDNA; format: cell-based, hepatitis B virus
[1] = tested on: HBV e antigen (HBeAg) production in HepDE19 cells; experiment: HBeAg ELISA in HepDE19 cells (surrogate marker for cccDNA); format: cell-based, hepatitis B virus; settings: nine days incubation
Procedure: High throughput compound screen and assay: HepDE19 cells were cultured under tetracycline containing medium until confluent, the cells were then trypsinized and seeded in 96-well plates at a density of 5.0×10^4 cells/well with tetracycline-free medium to induce HBV replication. Immediately following cell seeding, compounds were added to screening plates by means of automated liquid handling (Beckman Coulter, Brea, Calif.), at a final concentration of 10 μM in 1.0% DMSO. Each screening plate consisted of 80 compound test wells, 4 wells of cells with 1.0% DMSO only, 4 wells with DMSO and without cells, and 4 wells of cells with DMSO and 50 μM lamivudine (3TC) as a reference inhibitor. […] Intracellular HBeAg (precore) accumulation was assayed by indirect ELISA assay as follows. Media was removed from wells and the cell monolayer was fixed with 100% ice cold methanol for 20 min, followed with two washes (150 μl each) with PBS containing 0.5% Tween-20 (PBST) with 1 min incubation at room temperature. […] Signal was allowed to develop for 20 minutes and optical absorbance was determined at a wavelength of 650 nm with a reference reading at 490 nm. […]

HBV polymerase = target: T1, HBV polymerase (Hepatitis B virus genotype D subtype ayw, UniProt P03156); experiment: endogenous DNA polymerase reaction (EPR); format: biochemical; settings: for HBV polymerase activity: in vitro endogenous polymerase reaction, HBV virions from HepDE19 culture fluid
T1 construct: HBV virion stock (˜5×10^7 genome equivalents) concentrated from the supernatant of HepDE19 cells cultured in tetracycline-free medium; expressed in transfected cells; host or cells: HepDE19 cells (HBV-producing line, tetracycline-off); virions concentrated from the supernatant
Procedure: Endogenous DNA polymerase reaction (EPR): The EPR was performed as previously described with modifications (Guo, H., R. Mao, T. M. Block, and J. T. Guo. 2010). Briefly, EPR mixture was assembled with 10 μl of HBV virion stock (˜5×10^7 genome equivalents) concentrated from the supernatant of HepDE19 cells cultured in tetracycline-free medium (Guo, H., D. Jiang, T. Zhou, A. Cuconati, T. M. Block, and J. T. Guo. 2007, plus 15 μl of 2×EPR buffer which consisted of 0.3 M NaCl, 0.1 M Tris-HCl (pH 8.0), 20 mM MgCl2, 2 mM dithiothreitol, 0.2% (vol/vol) Nonidet P-40, 0.2 mM each of dATP/dGTP/dTTP, and 10 μM α-^32P-dCTP. Compounds were added as indicated and water was supplemented to bring the reaction volume to 30 μl. As a positive control, 0.2 mM of dGTP in the 2×EPR buffer was replaced with 0.2 mM ddGTP. After incubation at 37° C. for 1 hours, the reaction solution was dotted on Whatman 3M filter (Millipore, Billerica, Mass.) and subjected to rinse with 10% trichloride acid for 30 min at room temperature, followed by 3 times of wash with 95% ethanol, 5 min each. The radioactivity (counts of per minute, CPM) of acid insoluble ^32P was counted with a liquid scintillation counter (PerkinElmer, Waltham, Mass.).

T1 sequence (P03156 whole entry): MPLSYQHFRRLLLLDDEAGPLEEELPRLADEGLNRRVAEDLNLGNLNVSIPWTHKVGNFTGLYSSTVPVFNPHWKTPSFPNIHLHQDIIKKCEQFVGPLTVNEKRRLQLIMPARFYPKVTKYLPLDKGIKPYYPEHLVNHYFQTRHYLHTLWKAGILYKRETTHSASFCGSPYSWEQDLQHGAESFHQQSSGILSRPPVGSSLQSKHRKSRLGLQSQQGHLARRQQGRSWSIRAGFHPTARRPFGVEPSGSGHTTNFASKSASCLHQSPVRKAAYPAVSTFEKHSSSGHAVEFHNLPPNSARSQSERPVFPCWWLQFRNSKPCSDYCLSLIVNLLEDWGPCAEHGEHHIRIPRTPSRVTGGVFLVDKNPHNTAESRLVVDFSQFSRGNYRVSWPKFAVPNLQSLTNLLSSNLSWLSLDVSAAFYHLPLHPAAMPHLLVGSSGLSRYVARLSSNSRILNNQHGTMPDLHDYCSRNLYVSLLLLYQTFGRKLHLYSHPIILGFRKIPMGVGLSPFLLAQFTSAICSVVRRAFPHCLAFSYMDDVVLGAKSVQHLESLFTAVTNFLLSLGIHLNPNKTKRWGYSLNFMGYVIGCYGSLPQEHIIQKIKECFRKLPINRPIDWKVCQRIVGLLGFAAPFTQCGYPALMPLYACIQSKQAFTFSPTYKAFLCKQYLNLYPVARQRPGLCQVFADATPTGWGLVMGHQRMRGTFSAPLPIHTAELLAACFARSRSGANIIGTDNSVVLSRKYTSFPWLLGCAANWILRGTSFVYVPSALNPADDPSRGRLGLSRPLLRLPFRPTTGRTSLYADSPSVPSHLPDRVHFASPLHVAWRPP

O=C(CN(c1cc(C(F)(F)F)ccc1Cl)S(=O)(=O)c1ccccc1)NCc1ccncc1 [CCC-0975, 2-[Benzenesulfonyl-(2-chloro-5-trifluoromethyl-phenyl)-amino]-N-pyridin-4-ylmethyl-acetamide]
stability of HBV Dp-rcDNA and cccDNA (HBV Dp-rcDNA and cccDNA): did not alter
HBeAg production [1]: inhibitor
HBV polymerase activity (HBV polymerase; listed as 2-[Benzenesulfonyl-(2-chloro-5-trifluoromethyl-phenyl)-amino]-N-pyridin-4-ylmeth): does not inhibit
HBV polymerase activity (HBV polymerase; listed as 2-[benzenesulfonyl-(2-chloro-5-trifluoromethyl-phenyl)-amino]-N-pyridin-4-ylmeth): did not inhibit

Cc1nc2cc(NC(=O)c3ccc(S(=O)(=O)N(C)Cc4ccccc4)cc3)ccc2s1 [CCC-0346, 4-(Benzyl-methyl-sulfamoyl)-N-(2-methyl-benzothiazol-5-yl)-benzamide]
stability of HBV Dp-rcDNA and cccDNA (HBV Dp-rcDNA and cccDNA): did not alter
HBeAg production [1]: inhibitor
viral polymerase activity (HBV polymerase; endogenous polymerase reaction, compound at 3 μM): does not inhibit
HBV polymerase activity (HBV polymerase): did not inhibit
